Values joined by “and” are separate entries in the source; they are usually repeats but may differ in a detail not shown here. Equal entries are not always repeated.
Key:
MtbCoaBC [1] = target: T1, MtbCoaBC (Mycobacterium tuberculosis, UniProt P9WNZ1); test: High-throughput end-point pyrophosphate quantification assay (Biomol Green); format: biochemical; details: MtbCoaB activity; end-point, 2 µM CTP, 40 µM L-cysteine, 30 µM PPA; read-out: IC50 biomol green assay
MtbCoaBC [2] = target: T1, MtbCoaBC; test: Competition assays, first half of CoaB reaction (EnzChek, variable CTP or PPA); format: biochemical; details: in words
human CoaB (HCoaB) = human CoaB (HCoaB) (Homo sapiens, UniProt Q9HAB8); test: EnzChek pyrophosphate assay, HCoaB; format: biochemical; details: for Activity: slope of absorbance at 360 nm vs time (s)
Sequence of human CoaB (HCoaB) (Q9HAB8 whole entry): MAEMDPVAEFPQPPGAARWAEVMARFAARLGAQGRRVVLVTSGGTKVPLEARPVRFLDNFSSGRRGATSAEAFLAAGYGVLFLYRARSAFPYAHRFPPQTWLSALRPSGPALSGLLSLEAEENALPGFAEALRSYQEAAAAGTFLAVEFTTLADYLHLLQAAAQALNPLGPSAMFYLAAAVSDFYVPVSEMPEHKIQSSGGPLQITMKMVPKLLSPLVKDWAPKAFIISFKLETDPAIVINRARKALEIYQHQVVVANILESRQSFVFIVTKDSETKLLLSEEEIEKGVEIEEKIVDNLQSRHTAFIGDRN

[3] = test system: M. tuberculosis coaBC Tet-OFF conditional knockdown; format: cell-based, Mycobacterium tuberculosis; details: GAST/Fe minimal media
MsmCoaBC = MsmCoaBC (Mycolicibacterium smegmatis, UniProt A0QWT2); test: EnzChek pyrophosphate assay, CoaB activity of MsmCoaBC; format: biochemical, Mycobacterium smegmatis
Sequence of MsmCoaBC (A0QWT2 whole entry): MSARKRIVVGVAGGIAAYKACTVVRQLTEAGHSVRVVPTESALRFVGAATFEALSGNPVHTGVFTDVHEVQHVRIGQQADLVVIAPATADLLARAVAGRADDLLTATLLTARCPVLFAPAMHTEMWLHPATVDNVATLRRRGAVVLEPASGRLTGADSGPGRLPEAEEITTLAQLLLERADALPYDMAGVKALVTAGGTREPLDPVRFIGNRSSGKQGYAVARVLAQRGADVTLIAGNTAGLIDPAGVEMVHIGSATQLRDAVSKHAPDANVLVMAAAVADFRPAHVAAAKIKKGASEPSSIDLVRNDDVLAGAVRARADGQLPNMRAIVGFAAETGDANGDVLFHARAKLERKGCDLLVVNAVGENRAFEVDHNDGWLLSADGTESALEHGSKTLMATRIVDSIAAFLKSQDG
Procedure: The commercially available EnzChek pyrophosphate assay kit (E-6645) (Life Technologies) was used for this assay. […] In the assays with HCoaB an enzyme concentration of 1 µM was used instead. […] Assays were performed on either a CLARIOstar or PHERAstar microplate reader (BMG Labtech) in 96-well plates (Greiner). A substrate mixture containing the substrates and the inhibitor was pre-incubated at 25 °C for 10 min. An enzyme solution was prepared and separately pre-incubated at 25 °C for 10 min. The reaction was initiated by the addition of the substrates to the solution containing the enzyme to a final volume of 75 µL. Enzymatic activity was monitored by following the absorbance at 360 nm for 30 min (100 cycles/20 s each cycle) and only the steady-state region of the assay was used for data analysis. Assays were performed in triplicates, including a negative control (lacking PPA) and a positive control (lacking inhibitor).

[4] = 3.125 uM 1b, relative to average DMSO CT, replicates R1-R3
[5] = 6.25 uM 1b, relative to average DMSO CT, replicates R1-R3
[6] = 25 uM 1b, relative to average DMSO CT, replicates R1-R3
[7] = 50 uM 1b, relative to average DMSO CT, replicates R1-R3
[8] = 100 uM 1b, relative to average DMSO CT, replicates R1-R3
[9] = MsmCoaBC, 1b at concentration 1 (log 0; unit not given)
[10] = MsmCoaBC, 1b at concentration 2 (log 0.30103; unit not given)
[11] = MsmCoaBC, 0.015625 uM 1b, relative to average DMSO CT, replicates R1-R3
[12] = MsmCoaBC, 0.015625 uM 1b, replicates R1-R3
[13] = MsmCoaBC, 0.03125 uM 1b, relative to average DMSO CT, replicates R1-R3
[14] = MsmCoaBC, 0.03125 uM 1b, replicates R1-R3
[15] = MsmCoaBC, 0.0625 uM 1b, relative to average DMSO CT, replicates R1-R3
[16] = MsmCoaBC, 0.0625 uM 1b, replicates R1-R3
[17] = MsmCoaBC, 0.25 uM 1b, relative to average DMSO CT, replicates R1-R3
[18] = MsmCoaBC, 0.25 uM 1b, replicates R1-R3
[19] = MsmCoaBC, 0.5 uM 1b, replicates R1-R3

T1 sequence (P9WNZ1 whole entry): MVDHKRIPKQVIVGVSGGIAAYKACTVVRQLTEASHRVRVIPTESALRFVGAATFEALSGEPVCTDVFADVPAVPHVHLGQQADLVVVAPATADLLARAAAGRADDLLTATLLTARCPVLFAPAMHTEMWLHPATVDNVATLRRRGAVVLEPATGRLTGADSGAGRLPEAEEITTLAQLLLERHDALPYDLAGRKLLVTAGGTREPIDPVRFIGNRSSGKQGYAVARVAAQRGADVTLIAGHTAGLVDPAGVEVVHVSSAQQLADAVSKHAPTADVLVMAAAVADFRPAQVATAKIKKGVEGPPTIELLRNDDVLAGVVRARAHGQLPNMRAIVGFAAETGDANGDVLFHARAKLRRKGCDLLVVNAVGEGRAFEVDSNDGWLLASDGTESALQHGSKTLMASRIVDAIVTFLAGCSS

**Q.** How did the IC50 (MtbCoaBC [1]) turn out when `O=C(c1ccc(O)cc1)c1ccc(O)c(O)c1O` [compound 1b] was run?
**A.** The IC50 was 300 nM.

**Q.** And the mode of inhibition (MtbCoaBC [2]; relative to CTP)?
**A.** The mode of inhibition was “uncompetitive inhibition”.

**Q.** What about the mode of inhibition (MtbCoaBC [2]; relative to PPA) of the same compound?
**A.** The mode of inhibition was “uncompetitive inhibition”.

**Q.** What about the IC50 (human CoaB (HCoaB); 1 µM enzyme, average of three independent experiments ± SD) of the same compound?
**A.** Its IC50 is 122000 ± 22000 nM.

**Q.** And the Activity % (human CoaB (HCoaB); [4])?
**A.** Its Activity % is 96.65% and 97.82%.

**Q.** And the activity at 3.125 µM (human CoaB (HCoaB); [4])?
**A.** Its activity at 3.125 µM is 97.6%.

**Q.** What about the Inhibition % (human CoaB (HCoaB); 3.125 uM 1b, replicates R1-R3) of the same compound?
**A.** Its Inhibition % is 2.18% and 2.43%.

**Q.** And the inhibition at 3.125 µM (human CoaB (HCoaB); 3.125 uM 1b, replicates R1-R3)?
**A.** Its inhibition at 3.125 µM is 3.35%.

**Q.** What about the Activity (human CoaB (HCoaB); 3.125 uM 1b, replicates R1-R3) of the same compound?
**A.** Its Activity is 0.0001351 and 0.0001338 and 0.0001354.

**Q.** What about the Activity % (human CoaB (HCoaB); [5]) of the same compound?
**A.** The Activity % was 95.26% and 96.32%.

**Q.** What about the activity at 6.25 µM (human CoaB (HCoaB); [5]) of the same compound?
**A.** The activity at 6.25 µM was 97.7%.

**Q.** What about the Inhibition % (human CoaB (HCoaB); 6.25 uM 1b, replicates R1-R3) of the same compound?
**A.** The Inhibition % was 4.74% and 3.68% and 2.34%.

**Q.** And the Activity (human CoaB (HCoaB); 6.25 uM 1b, replicates R1-R3)?
**A.** Its Activity is 0.0001352 and 0.0001319 and 0.0001333.

**Q.** What about the Activity % (human CoaB (HCoaB); [6]) of the same compound?
**A.** The Activity % was 82.72% and 82.77%.

**Q.** What about the activity at 25 µM (human CoaB (HCoaB); [6]) of the same compound?
**A.** Its activity at 25 µM is 81.5%.

**Q.** And the Inhibition % (human CoaB (HCoaB); 25 uM 1b, replicates R1-R3)?
**A.** Its Inhibition % is 17.23% and 18.55%.

**Q.** And the inhibition at 25 µM (human CoaB (HCoaB); 25 uM 1b, replicates R1-R3)?
**A.** Its inhibition at 25 µM is 17.3%.

**Q.** What about the Activity (human CoaB (HCoaB); 25 uM 1b, replicates R1-R3) of the same compound?
**A.** The Activity was 0.0001127 and 0.0001145 and 0.0001146.

**Q.** What about the Activity % (human CoaB (HCoaB); [7]) of the same compound?
**A.** The Activity % was 63.96% and 63.87%.

**Q.** And the activity at 50 µM (human CoaB (HCoaB); [7])?
**A.** Its activity at 50 µM is 75.6%.

**Q.** And the Inhibition % (human CoaB (HCoaB); 50 uM 1b, replicates R1-R3)?
**A.** The Inhibition % was 36.13% and 24.38%.

**Q.** What about the inhibition at 50 µM (human CoaB (HCoaB); 50 uM 1b, replicates R1-R3) of the same compound?
**A.** Its inhibition at 50 µM is 36%.

**Q.** What about the Activity (human CoaB (HCoaB); 50 uM 1b, replicates R1-R3) of the same compound?
**A.** The Activity was 0.0001047 and 0.000088534 and 0.000088398.

**Q.** What about the Activity % (human CoaB (HCoaB); [8]) of the same compound?
**A.** Its Activity % is 56.11% and 53.46%.

**Q.** What about the activity at 100 µM (human CoaB (HCoaB); [8]) of the same compound?
**A.** Its activity at 100 µM is 60.5%.

**Q.** What about the Inhibition % (human CoaB (HCoaB); 100 uM 1b, replicates R1-R3) of the same compound?
**A.** Its Inhibition % is 46.54% and 39.47%.

**Q.** And the inhibition at 100 µM (human CoaB (HCoaB); 100 uM 1b, replicates R1-R3)?
**A.** Its inhibition at 100 µM is 43.9%.

**Q.** And the Activity (human CoaB (HCoaB); 100 uM 1b, replicates R1-R3)?
**A.** Its Activity is 0.000083783 and 0.000077656 and 0.000074000.

**Q.** What about the Activity (human CoaB (HCoaB); 200 uM 1b, replicates R1-R3, compound interference at 200uM makes the assay unreliable) of the same compound?
**A.** Its Activity is -0.000004063 and 0.000002127 and -0.000001796.

**Q.** What about the “sensitisation on incremental silencing of CoaBC” value [3] of the same compound?
**A.** Its value is “did not sensitise M. tuberculosis further”.

**Q.** And the IC50 (MsmCoaBC)?
**A.** The IC50 was 260 ± 20 nM.

**Q.** What about the “inhibition, replicates 1-3” value (MsmCoaBC; [9]) of the same compound?
**A.** The value was 86.05 and 84.82 and 84.29.

**Q.** What about the “reaction rate (slope of absorbance at 360 nm versus time), replicates 1-3” value (MsmCoaBC; [9]) of the same compound?
**A.** The value was 0.000051231 and 0.000045511 and 0.000049507.

**Q.** And the “remaining activity relative to control, replicates 1-3” value (MsmCoaBC; [9])?
**A.** Its value is 15.71 and 13.95 and 15.18.

**Q.** What about the “inhibition, replicates 1-3” value (MsmCoaBC; [10]) of the same compound?
**A.** Its value is 94.07.

**Q.** And the “reaction rate (slope of absorbance at 360 nm versus time), replicates 1-3” value (MsmCoaBC; [10])?
**A.** Its value is -0.000000851 and -0.000003095 and 0.000019348.

**Q.** And the “remaining activity relative to control, replicates 1-3” value (MsmCoaBC; [10])?
**A.** Its value is -0.2608 and -0.9489 and 5.932.

**Q.** What about the Activity % (MsmCoaBC; [11]) of the same compound?
**A.** Its Activity % is 96.69% and 95.33%.

**Q.** And the activity at 0.015625 µM (MsmCoaBC; [11])?
**A.** The activity at 0.015625 µM was 98.6%.

**Q.** And the “Activity (slope of absorbance at 360 nm vs time)” value (MsmCoaBC; [12])?
**A.** Its value is 0.0003217 and 0.0003154 and 0.0003109.

**Q.** What about the Inhibition % (MsmCoaBC; [12]) of the same compound?
**A.** The Inhibition % was 3.31% and 4.67% and 1.38%.

**Q.** And the Activity % (MsmCoaBC; [13])?
**A.** The Activity % was 95.46% and 96.92%.

**Q.** What about the activity at 0.03125 µM (MsmCoaBC; [13]) of the same compound?
**A.** Its activity at 0.03125 µM is 93.2%.

**Q.** And the “Activity (slope of absorbance at 360 nm vs time)” value (MsmCoaBC; [14])?
**A.** The value was 0.0003041 and 0.0003114 and 0.0003161.

**Q.** What about the Inhibition % (MsmCoaBC; [14]) of the same compound?
**A.** Its Inhibition % is 4.54% and 3.08% and 6.75%.

**Q.** And the Activity % (MsmCoaBC; [15])?
**A.** Its Activity % is 92.06% and 92.26%.

**Q.** What about the activity at 0.0625 µM (MsmCoaBC; [15]) of the same compound?
**A.** The activity at 0.0625 µM was 85.7%.

**Q.** And the “Activity (slope of absorbance at 360 nm vs time)” value (MsmCoaBC; [16])?
**A.** Its value is 0.0002796 and 0.0003003 and 0.0003009.

**Q.** And the Inhibition % (MsmCoaBC; [16])?
**A.** Its Inhibition % is 7.74% and 14.27%.

**Q.** And the inhibition at 0.0625 µM (MsmCoaBC; [16])?
**A.** The inhibition at 0.0625 µM was 7.94%.

**Q.** And the Activity % (MsmCoaBC; [17])?
**A.** The Activity % was 48.31% and 55.06%.

**Q.** What about the activity at 0.25 µM (MsmCoaBC; [17]) of the same compound?
**A.** Its activity at 0.25 µM is 46%.

**Q.** What about the “Activity (slope of absorbance at 360 nm vs time)” value (MsmCoaBC; [18]) of the same compound?
**A.** The value was 0.0001501 and 0.0001576 and 0.0001796.

**Q.** What about the Inhibition % (MsmCoaBC; [18]) of the same compound?
**A.** Its Inhibition % is 44.94% and 53.97%.

**Q.** What about the inhibition at 0.25 µM (MsmCoaBC; [18]) of the same compound?
**A.** Its inhibition at 0.25 µM is 51.7%.

**Q.** What about the Activity % (MsmCoaBC; MsmCoaBC, 0.5 uM 1b, relative to average DMSO CT, replicates R1-R3) of the same compound?
**A.** The Activity % was 12.28% and 18.89% and 25.96%.

**Q.** And the “Activity (slope of absorbance at 360 nm vs time)” value (MsmCoaBC; [19])?
**A.** Its value is 0.000040045 and 0.000061602 and 0.000084683.

**Q.** What about the Inhibition % (MsmCoaBC; [19]) of the same compound?
**A.** The Inhibition % was 74.04% and 87.72%.

Source: publication PMC7794376 (Nature Communications, 2021)
